Laboratory results: paper PMC6934184, “Selective DNA-PKcs inhibition extends the therapeutic index of localized radiotherapy and chemotherapy” (The Journal of Clinical Investigation, 2019)

Molecular target: T1, MAP3K8 (COT) (Homo sapiens, UniProt P41279)
T1 construct: purchased Thermo Fisher Scientific (Life Technologies) SelectScreen
Assay: SelectScreen Z'LYTE
Type: biochemical
Details: ATP 100 µM
Outline: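 Percent values come from Thermo SelectScreen profiling of NU5455, combining activity and binding assays. CSF1R was run in Z'LYTE format at Km app ATP, and CAMK1 in Adapta format with ATP listed at 10.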

T1 sequence (P41279 whole entry): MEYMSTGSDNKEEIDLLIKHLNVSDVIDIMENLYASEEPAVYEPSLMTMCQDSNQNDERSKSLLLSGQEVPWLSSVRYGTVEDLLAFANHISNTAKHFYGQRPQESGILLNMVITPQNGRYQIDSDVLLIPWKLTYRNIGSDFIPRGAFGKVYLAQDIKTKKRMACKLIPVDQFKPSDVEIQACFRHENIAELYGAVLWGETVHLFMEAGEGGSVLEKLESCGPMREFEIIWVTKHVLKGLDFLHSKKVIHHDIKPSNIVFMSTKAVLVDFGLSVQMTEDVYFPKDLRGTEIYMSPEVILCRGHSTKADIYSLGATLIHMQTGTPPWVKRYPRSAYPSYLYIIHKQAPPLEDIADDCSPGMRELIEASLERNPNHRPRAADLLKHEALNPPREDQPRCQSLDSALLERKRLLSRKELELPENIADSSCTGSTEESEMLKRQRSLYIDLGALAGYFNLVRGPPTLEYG

For `CN(C(=O)CN1CCOCC1)c1ccc2sc3c(-c4cccc5c(=O)cc(N6CC7CCC(C6)O7)oc45)cccc3c2c1` [NU5455], which inhibition at 1 µM is on record?
The inhibition at 1 µM was 3.5%.
